Reference: ChEMBL document CHEMBL1143458, “An efficient synthesis of argifin: a natural product chitinase inhibitor with chemotherapeutic potential” (Bioorg Med Chem Lett, 2005)

Legend:
[1] = Maximum rate of metabolism of compound; format: ADME; details: aspergillus fumigatus
Endochitinase B1 = Endochitinase B1 (Aspergillus fumigatus, UniProt Q873X9); test: Inhibitory activity against Chitinase B1 (AfChiB1) using fuorometric assay with 4-methylumbelliferyl-b-D-N,N0-diacetylchitobiose as substrate
[2] = test system: CNC(=O)NC(=N)NCCC[C@@H]1NC(=O)[C@@H](C)NC(=O)C[C@@H](C(=O)O)NC(=O)C[C@@H](C(=O)O)NC(=O)[C@H](Cc2ccccc2)N(C)C1=O; test: Michaelis constant for compound binding to Chitinase B1; details: Aspergillus fumigatus

| Compound | Vmax [1] [nM/s] | Ki (Endochitinase B1) [µM] | Km [2] [µM] |
| --- | --- | --- | --- |
| CNC(=O)NC(=N)NCCC[C@@H]1NC(=O)[C@@H](C)NC(=O)C[C@@H](C(=O)O)NC(=O)C[C@@H](C(=O)O)NC(=O)[C@H](Cc2ccccc2)N(C)C1=O [ARGIFIN] | 2.7 | 0.017 |  |
| Endochitinase B1 (Aspergillus fumigatus) (from UniProt Q873X9) |  |  | 10.4 |
